Assay results taken from patent publication US5593835A, “Methods and kits for RNA binding compounds” (President and Fellows of Harvard College, priority 1995, dated 1997).
Read-outs that look alike come from different tables or passages of the source.

Key:
[1] = molecular target: X1 RNA (SEQ ID NO: 3 in Table 3; SEQ ID NO:2 in text); test: Fluorescence binding measurements, X1 RNA
Experimental: (§1) The binding of tobramycin to two cloned RNAs X1 (SEQ ID NO:2) and J6 (SEQ ID NO:5), representative of both classes of consensus sequences, was measured using the fluorescence techniques described in the exemplification.
(§2) Steady state fluorescence measurements were performed on a double beam fluorescence spectrometer (Perkin-Elmer Model 512, Norwalk, Conn.). The excitation wavelength was 341 nm. All measurements were done at 20° C. in 140 mM NaCl, 5 mM KCl, 1 mM CaCl2, 1 mM MgCl2, and 20 mM HEPES, pH 7.4. The KD of the PYT and the RNA aptamer was calculated by the curve fitting of the fluorescence intensity as a function of RNA concentration, using the following equation
(§3) Competition binding measurements of antibiotics with RNA and PYT were performed at constant concentrations of PYT and RNA by monitoring fluorescence intensity changes as a function of changing concentrations of the antibiotics (a standard fluorescence curve). The KD s for the antibiotics were calculated by the curve fitting of the fluorescence intensity of PYT as a function of antibiotic concentration, using the following equation: […]

[2] = molecular target: J6a1 RNA (SEQ ID NO: 5), synthetically derived from the predicted structures; test: Fluorescence binding measurements, J6a1 RNA
Experimental: as §1
*synthetically derived from the predicted structures
as §2, §3

RRE region of HIV RNA = test: Fluorescence binding and competitive binding to RRE RNA; settings: competition, 100 nM RNA, 15 nM fluorescent tobramycin, 20° C., pH 7.4; read-out: Dissociation Constant (KD) RRE RNA
Experimental: In order to quantitatively determine whether fluorescently labelled tobramycin and other antibiotics bind directly to the RRE region and/or to other regions of the HIV RNA, and with what affinity, the RRE and TAR regions of HIV RNA were prepared and used in the method of the invention as target RNAs.
For binding studies, different concentrations of RRE RNA (from 0 to 300 nm) were mixed with a constant concentration (15 nM) PYT in Binding buffer (140 mM NaCl, 1 mM MgCl2, 20 mM HEPES, pH 7.4), 2 ml total volume, for 1-5 min. at 20° C. in a semimicro-cell cuvette. The fluorescence was measured on a Perkin-Elmer Model 512 double beam fluorescence spectrophotometer. The excitation wavelength used was 330 nm. The intensities of fluorescence emission at 390 nm were used to calculate dissociation constants. Generally 8 to 12 points were used for calculation.
In other competitive binding studies, TAR or RRE RNA was added at a constant concentration of 100 nM±5% and PYT at 15 nM. Different concentrations of competitive antibiotic (tobramycin (o-60 μM), gentamicin C (0-100 μM), neomycin B (0-4 μM), or lividomycin A (0-100 μM) or Rev protein (0-6 μM) were mixed with constant concentrations of RNA (100 nM TAR or RRE) and C1PYT (15 nM), in Binding buffer (140 mM NaCl, 5 mM KCl, 1 mM MgCl2, 20 mM HEPES, pH 7.4), 2 ml total volume, for 1-5 min. at 20° C. in a semimicrocell cuvette. The fluorescence was measured on a Perkin-Elmer Model 512 double beam fluorescence spectrophotometer. The excitation wavelength used was 330 nm. The intensities of fluorescence emission at 390 nm were used to calculate dissociation constants. Generally 8 to 12 points were used for calculation.
Wild type and mutant RRE RNAs were transcribed in vitro by T7 RNA polymerase using synthetic oligonucleotide templates, as described by Milligan et al. (Meth. Enzymol. (1989) 180: 51-62).
as §3

[3] = molecular target: random selected RNA pool (low stringency tobramycin column); test: Fluorescence assay, average binding of the random selected RNA pool; settings: overall selected pool mixture
Experimental: To determine whether the W13 RNA clone is representative of the average binding capacity of the random selected RNA pool, the average KD values for the random selected pool were measured. […] Therefore, the W13 RNA is representative of the average binding capacity of the random selected pool.
as §2, §3

[4] = test system: RNA pool transcribed from DNA after the sixth selection, bound to tobramycin affinity column; test: Elution of bound RNA from tobramycin affinity column; format: binding; settings: 3 column volumes of 10 mM tobramycin
Description: Elution patterns of the RNA from the columns are shown in FIG. 4 for the second and sixth selections. Over 6 cycles of selection, the percentages of RNA specifically eluted with tobramycin were <0.1%, 3.0%, 2.9%, 26%, 55%, and 82%. […] The RNA pool transcribed from DNA after the sixth selection could not be eluted from the affinity column, even after 100 column volumes of selection buffer.
An N-hydroxysuccinimide Affi-Gel affinity column (Bio-Rad, Hercules, Calif.) was derivatized with either 20 μmoles or 0.075 μmoles tobramycin per ml of gel to generate the affinity columns. Excess N-hydroxysuccinimide linkages were blocked by adding 1M ethanolamine. The resulting column served as the support for the RNA selections. The tobramycin concentration on column was estimated as about 15 mM. Selections were performed in 1 ml column volumes in a buffer (selection buffer) containing 140 mM NaCl, 5 mM KCl, 1 mM CaCl2, 1 mM MgCl2, and 20 mM Tris acetate, pH 7.4 (Bock et al. (1992) Nature 355: 564-566). A 1 ml Affi-Gel 10 pre-column treated with ethanolamine was used in all selections.
The original double stranded DNA pool was constructed by large scale PCR amplification of the synthesized 109mer random DNA pool (Oligos, Etc., Inc., Wilsonville, Oreg.) containing 60 random nucleotides. […]

[5] = K1 - high affinity, read-out: Dissociation Constants K1(TOB)
[6] = K2 - low affinity, read-out: Dissociation Constants K2(TOB)

SMILES: NC[C@H]1O[C@H](O[C@H]2[C@H](O)[C@@H](O[C@H]3O[C@H](CO)[C@@H](O)[C@H](N)[C@H]3O)[C@H](N)C[C@@H]2N)[C@H](N)C[C@@H]1O [tobramycin]
- Kd [1, 5]: 0.003 ± 0.001 µM
- Kd [1, 6]: 15.9 ± 0.7 µM
- Kd [2, 5]: 0.009 ± 0.003 µM
- Kd [2, 6]: 2.7 ± 0.3 µM
- Kd (RRE region of HIV RNA): 2.32 ± 0.28 µM
- Kd [3]: 8.8 ± 0.3 µM
- RNA eluted from tobramycin affinity column [4]: 96%
